Laboratory results published in article PMC11513893, “Discovery of Oral Degraders of the ROS1 Fusion Protein with Potent Activity against Secondary Resistance Mutations” (Journal of Medicinal Chemistry, 2024).

Columns and labels:
Ba/F3 ROS1-G2032R = test: Antiproliferation assay; format: cell-based, mouse; settings: Mus musculus, BaF3; Ba/F3 cells, cell growth inhibition, 72 h
[1] = Metabolic stability in rat microsomes; format: in vitro ADME; settings: rat, pooled rat microsomes, pH 7.4, 250 nM compound, NADPH, 37 °C
Procedure: (§1) Pooled human and rat microsomes were prepared and stored at −80 °C prior to use. A master-mix containing microsome, phosphate buffer, and test compound (9 series) solution was made as follows: (1) 3 μL of microsome (20 mg/mL) was diluted with mixed 30 μL of potassium phosphate buffer (pH 7.4; 10×) and 246 μL of water; (2) 3 μL of 25 μM drug solution was added to the microsome; (3) the master solution was prewarmed at 37 °C for 5 min. NADPH solution A (15 μL) and NADPH solution B (3 μL) from Promega were added to the above-mentioned master solution to initiate the reaction. The final concentration of 9 compounds in the reaction system was 250 nM. An aliquot of 20 μL was pipetted from the reaction solution and stopped by the addition of 180 μL of cold MeCN containing 25 ng of Tamoxifen-(N,N-dimethyl-13C2)-15N as an internal standard at the designated time points (0, 5, 15, 30, 45, and 60 min). The incubation solution was vortexed-mixed (800 rpm/10 min) and centrifuged at 3500 rpm for 10 min to precipitate proteins. The supernatant was collected and used for the LC/MS/MS analysis. The natural log of the remaining percentage of the test compound was plotted against time and the gradient of the line was determined.

ROS1 = ROS1 degradation in Ba/F3 cells (WES immunoblotting); format: cell-based
Outline: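 ROS1 and phospho-ROS1 (Tyr2274/2334) in Ba/F3 lysates quantified by capillary immunoassay (WES) with chemiluminescent detection, duplicate experiments. Levels expressed as AUC of the chemiluminescence peak.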

[2] = system: Ba/F3 CD74-ROS1 non mutant; test: Antiproliferation assay (Alamar Blue, 72 h); format: cell-based, mouse; settings: Mus musculus, BaF3, 72 h, Ba/F3 cells, cell growth inhibition
Log P measurement = format: physicochemical
Source text: An important physicochemical property for a PROTAC molecule is its lipophilicity that largely dictates its pharmaceutical performance such as absorption, permeability, and distribution.

[3] = Metabolic stability in human microsomes; format: in vitro ADME; settings: human, pooled human microsomes, pH 7.4, 250 nM compound, NADPH, 37 °C
Procedure: as §1

[4] = Pharmacokinetics study in Sprague–Dawley rats; format: in vivo; settings: rat, 0.5 mg/kg iv
[5] = Pharmacokinetics study in Sprague–Dawley rats; format: in vivo; settings: rat
Procedure: Four to 6 weeks old Sprague–Dawley rats [Crl: CD (SD)] (SPF/VAF) were purchased from Charles River (Wilmington MA). Animals were quarantined/acclimated for 2–6 weeks prior to dose initiation. Sprague–Dawley rats were given oral administration of test compounds (20% PG, 5% Solutol, and 75% of 20% HP-β-CD in water) at different dose levels. After treatment with the compounds, whole blood was collected from each study animal by puncture of the tail vein (0.4 mL of whole blood from rats) into tubes containing K2EDTA at each time point. The plasma samples were divided into 2 aliquots (approximately equal in volume) and stored frozen at −75 ± 15 °C within 2 h of the collection until analysis.
The stock solution of the test compound (0.01 M) in DMSO was prepared and stored at −20 ± 5 °C. The desired serial concentrations of working reference analyte solutions were achieved by diluting a stock analyte solution with 50% acetonitrile (0.1% formic acid) in water solution. The bioanalytical LC–MS/MS method was developed for quantitative determination of each test compound in Sprague–Dawley rat plasma with acceptable selectivity, sensitivity, calibration curve, precision, and accuracy. The analytical method is applicable for the determination of test compounds in Sprague–Dawley rat plasma with a lower limit of quantification of 10.0 ng/mL and an upper limit of quantification of 5000 ng/mL. Five microliters of diluted supernatant was injected into the LC–MS/MS system (TSQ Quantis) and a SynergiTM 4 μm Fusion-RP 80 Å (50 × 2 mm) column using gradient elution and a Triple Quad mass spectrometer) for quantitative analysis. The mobile phases used were 0.1% formic acid in deionized water and 0.1% formic acid in acetonitrile. The pharmacokinetic parameters T1/2 (the biological half-life), Cmax (maximal concentration), Tmax (time at which Cmax is observed), and AUC (area under the plasma concentration–time curve) were calculated from the plasma concentration versus time data using WinNonlin (PhoenixTM, version 8.1, Mountain View, CA, USA).

[6] = system: Ba/F3 ROS1 (SLC34A2) L2026M; test: Antiproliferation assay; format: cell-based; settings: Mus musculus, BaF3; Ba/F3 cell line
Procedure: (§2) Ba/F3 immortalized murine bone marrow–derived pro-B cells were obtained from Creative Biogene (Shirley, NY) and cultured in RPMI supplemented with 10% FBS and IL3 (0.5 ng/mL). Ba/F3 cells expressing ROS1 variants were maintained in RPMI supplemented with 10% FBS and puromycin (0.7 mg/mL). […] Each compound was dissolved in DMSO and serially diluted in RPMI for cell culture experiments.
(§3) To assess the 72 h effect of drug treatment on cell proliferation, 2000 to 3000 cells were plated in replicates of three in 96-well plates. The plates were placed in an incubator at 37 °C, 5% CO2 for 72 h. Following drug treatments, the cells were incubated with the Alamar Blue Assay reagent (BioRad), 5 μL each well for 4 h at 37 °C and 5% CO2. Luminescence was measured on a multiplate reader and analyzed. […] IC50 values were determined using a nonlinear regression model with a sigmoidal dose response in GraphPad. The data were collected based on triplicate experiments, and presented as mean ± SD.

[7] = system: Ba/F3 ROS1 (SLC34A2) G2032R-F2075 V; test: Antiproliferation assay; format: cell-based; settings: Mus musculus, BaF3; Ba/F3 cell line
Procedure: as §2, §3

[8] = system: Ba/F3 ROS1 (SLC34A2) D2033N; test: Antiproliferation assay; format: cell-based; settings: Mus musculus, BaF3; Ba/F3 cell line
Procedure: as §2, §3

[9] = system: Ba/F3 ROS1 (SLC34A2) G2032R; test: Antiproliferation assay; format: cell-based; settings: Mus musculus, BaF3; Ba/F3 cell line
Procedure: as §2, §3

Ba/F3 ROS1 D2033N = test: Antiproliferation assay; format: cell-based; settings: Mus musculus, BaF3; Ba/F3 cells, cell growth inhibition
Source text: (§4) To assess targeted degradation of ROS1 fusion proteins, we first established a mouse pro-B cell line Ba/F3 as a model expressing the CD74-ROS1 oncogene or CD74-ROS1 with clinically observed secondary/tertiary mutations. The Ba/F3 cell line is dependent on interleukin-3 for survival and proliferation. Upon transduction of oncogenic ROS1, Ba/F3 cells become independent of interleukin-3 but dependent on the transduced driver gene.
as §2, §3
(§5) The resulting virus was used to infect Ba/F3 cells. After retroviral infection, Ba/F3 cells were selected by incubation with puromycin (0.7 mg/mL) for 2 weeks. For Ba/F3 cells infected by the CD74–ROS1 variants, IL3 was withdrawn from the culture medium at least 2 weeks before the experiments.

Ba/F3 ROS1 L2026M = test: Antiproliferation assay; format: cell-based; settings: Mus musculus, BaF3; Ba/F3 cells, cell growth inhibition
Source text: as §4, §2, §3, §5

Ba/F3 ROS1 G2032R-F2075V = test: Antiproliferation assay; format: cell-based; settings: Mus musculus, BaF3; Ba/F3 cells, cell growth inhibition
Source text: as §4, §2, §3, §5

[10] = system: Ba/F3 ROS1 (CD74) S1986F-G2032R; test: Antiproliferation assay; format: cell-based; settings: Mus musculus, BaF3; Ba/F3 cell line
Procedure: (§6) Ba/F3 immortalized murine bone marrow–derived pro-B cells were obtained from Creative Biogene (Shirley, NY) and cultured in RPMI supplemented with 10% FBS and IL3 (0.5 ng/mL). Ba/F3 cells expressing ROS1 variants were maintained in RPMI supplemented with 10% FBS and puromycin (0.7 mg/mL). Crizotinib, ceritinib, brigatinib, repotrectinib, and lorlatinib were purchased from MedChem Express. Each compound was dissolved in DMSO and serially diluted in RPMI for cell culture experiments.
as §3
(§7) cDNA encoding CD74-ROS1 or mutant CD74–ROS1 was cloned into retroviral expression vectors (pLenti), and viruses were generated in HEK293T cells by transfecting with packaging plasmids. The resulting virus was used to infect Ba/F3 cells. After retroviral infection, Ba/F3 cells were selected by incubation with puromycin (0.7 mg/mL) for 2 weeks. For Ba/F3 cells infected by the CD74–ROS1 variants, IL3 was withdrawn from the culture medium at least 2 weeks before the experiments.

[11] = system: Ba/F3 ROS1 (CD74) S1986F-L2086F; test: Antiproliferation assay; format: cell-based; settings: Mus musculus, BaF3; Ba/F3 cell line
Procedure: as §6, §3, §7

Ba/F3 ROS1 (CD74) G2032R = test: Antiproliferation assay; format: cell-based; settings: Mus musculus, BaF3; Ba/F3 cell line
Procedure: as §6, §3, §7

[12] = system: Ba/F3 ROS1 (CD74) S1986F-G2032R-L2086F; test: Antiproliferation assay; format: cell-based; settings: Mus musculus, BaF3; Ba/F3 cell line
Procedure: as §6, §3, §7

[13] = system: Ba/F3 ROS1 (CD74) G2032R-L2086F; test: Antiproliferation assay; format: cell-based; settings: Mus musculus, BaF3; Ba/F3 cell line
Procedure: as §6, §3, §7

Ba/F3 ROS1 (CD74) L2086F = test: Antiproliferation assay; format: cell-based; settings: Mus musculus, BaF3; Ba/F3 cell line
Procedure: as §6, §3, §7

[14] = system: Ba/F3 ROS1 (SLC34A2) G2032R-F2075C; test: Antiproliferation assay; format: cell-based; settings: Mus musculus, BaF3; Ba/F3 cell line
Procedure: as §6, §3

[15] = system: Ba/F3 ROS1 (SLC34A2) G2032R-D2113G; test: Antiproliferation assay; format: cell-based; settings: Mus musculus, BaF3; Ba/F3 cell line
Procedure: as §6, §3

[16] = system: Ba/F3 ROS1 (SLC34A2) F2075C-G1837E; test: Antiproliferation assay; format: cell-based; settings: Mus musculus, BaF3; Ba/F3 cell line
Procedure: as §6, §3

Ba/F3 ROS1 L2086F = test: Antiproliferation assay; format: cell-based; settings: Mus musculus, BaF3; Ba/F3 cells, cell growth inhibition
Source text: as §4, with “gene. The Ba/F3 models have been effectively employed in the discovery and preclinical development of next generation ROS1 inhibitors.[11],[14],[15] We have tested ROS1 inhibitors against these Ba/F3 cells to validate their sensitivity and resistance to ROS1 inhibition.” for “gene.”
as §6, §3, §7

[17] = system: Ba/F3 ROS1 (SLC34A2) V2098I; test: Antiproliferation assay; format: cell-based; settings: Mus musculus, BaF3; Ba/F3 cell line
Procedure: as §2, §3

SMILES	IC50 (Ba/F3 ROS1-G2032R) [nM]	IC50 [10] [nM]	IC50 [11] [nM]	IC50 (Ba/F3 ROS1 (CD74) G2032R) [nM]	IC50 [12] [nM]	IC50 [13] [nM]	IC50 (Ba/F3 ROS1 (CD74) L2086F) [nM]	IC50 [14] [nM]	IC50 [15] [nM]	IC50 [16] [nM]	IC50 (Ba/F3 ROS1 L2086F) [nM]	also measured
COc1cc(N2CCN(CC3CN(c4ccc5c(c4)CN(C4CCC(=O)NC4=O)C5=O)C3)CC2)ccc1Nc1ncc(Cl)c(Nc2ccccc2P(C)(C)=O)n1 (centres unmarked) [9m, 3-(5-(3-((4-(4-((5-Chloro-4-((2-(dimethylphosphoryl)phenyl)amino)pyrimidin-2-yl)amino)-3-methoxyphenyl)piperazin-1-yl)methyl)azetidin-1-yl)-1-oxoisoindolin-2-yl)piperidine-2,6-dione]	120 ± 27	–	–	–	–	–	–	–	–	–	–	microsomal CLint at 1 h, 0.25 µM [1]: 9.6 µL/min/mg; half-life at 1 h, 0.25 µM ([1]; read-out: metabolic stability in rat microsomes T1/2): 2.41 h; DC50 (ROS1; concentration needed to reduce ROS1 protein by 50%, Ba/F3 cells): 9 nM; Dmax (%) (ROS1) (ROS1; maximal degradation of ROS1 in Ba/F3 cells): 94%; IC50 [2]: 8 ± 0.9 nM; logP (Log P measurement): 3.07; microsomal CLint at 1 h, 0.25 µM [3]: 94.5 µL/min/mg; half-life at 1 h, 0.25 µM ([3]; read-out: metabolic stability in human microsomes T1/2): 0.615 h; AUC (iv) [4]: 2151 ng·h/mL; Cmax at 24 h ([5]; Sprague-Dawley [Crl: CD (SD)], plasma, 5 mg/kg po): 145 ng/mL; bioavailability ([5]; Sprague-Dawley [Crl: CD (SD)], plasma, 5 mg/kg po vs 0.5 mg/kg iv): 4.8%; AUC (po) ([5]; 5 mg/kg po): 1032 ng·h/mL; T1/2 ([5]; 5 mg/kg po): 8.88 h; Tmax ([5]; 5 mg/kg po): 1 h
COc1cc(N2CCC(N3CCN(C)CC3)CC2)ccc1Nc1ncc(Cl)c(Nc2ccccc2P(C)(C)=O)n1 [brigatinib]	265 ± 73	488 ± 96.8	329 ± 85.5	513 ± 118	> 2000	694 ± 204	172 ± 47.6	869 ± 148	215 ± 50.3	8.1 ± 2.2	172 ± 24	IC50 [6]: 47.8 ± 10.2 nM; IC50 [7]: 327 ± 44.8 nM; IC50 [8]: 114 ± 25.3 nM; IC50 [9]: 490 ± 38.4 nM; IC50 (Ba/F3 ROS1 D2033N): 114 ± 17 nM; IC50 (Ba/F3 ROS1 L2026M): 48 ± 4 nM; IC50 (Ba/F3 ROS1 G2032R-F2075V): 327 ± 43 nM
C[C@H]1CNC(=O)c2cnn3ccc(nc23)N[C@H](C)c2cc(F)ccc2O1 [repotrectinib]	–	31.4 ± 7.3	> 2000	23.5 ± 3.8	> 2000	181 ± 22.5	588 ± 76	> 2000	25 ± 6.8	0.4 ± 0.2	> 2000	IC50 [17]: 3.5 ± 0.6 nM
